Experimental data as given in patent US20230312550A1, “N-(2-(4-CYANOTHIAZOLIDIN-3-YL)-2-OXOETHYL)-QUINOLINE-4-CARBOXAMIDES” (AstraZeneca AB, priority 2020, published 2023).
pIC50, pKd: −log10 of the molar value. Converted amounts (≈) assume the structure as drawn.

Key:
FAP = FAP (Homo sapiens (Human), UniProt Q12884); test: hFAP inhibition assay; assay type: biochemical; conditions: Ala-Pro-AMC 20 μM, n = 1 or geometric mean n = 2-3
Description: 384 low volume black plates (Greiner #784076) were used. 4 μL, 0.48 nM enzyme solution (100 mM Tris HCl, 100 mM NaCl, 0.05% Chaps, pH 7.4) was added to 40 nL compounds (in DMSO) at 10 CR, 3 fold dilution series from 50 μM FAC. Plates were incubated for 15 min at rt in dark. 4 μL, 40 μM substrate solution (100 mM Tris HCl, 100 mM NaCl, 0.05% Chaps, pH 7.4) was added to each well. Plates were centrifuged at 1000 rpm and incubated for 30 min at rt in dark. The plates were read on a PHERAstar® reader with excitation 340 nm and emission 460 nm. Data were analyzed in Genedata Screener®. IC50 values were determined by plotting % inhibition versus log compound concentration and using a one site dose response model.

[1] = Metabolic stability in human liver microsomes (HLM); conditions: human
Description: Metabolic stability in HLM was measured as described in J Comput Aided Mol Des 2015, 29, 795.

[2] = Metabolic stability in rat hepatocytes (rHep); conditions: n = 1 or geometric mean of n = 2-3
Kinetic solubility = conditions: kinetic from dmso stock
Description: Kinetic solubility was measured as described in Comput Aided Mol Des 2015, 29, 795.

[3] = biological target: human Fibroblast activation protein alpha (hFAP) (Homo sapiens (Human), UniProt Q12884); test: hFAP inhibition assay (tight binders); assay type: biochemical; conditions: Ala-Pro-AMC 20 μM, n = 1 or geometric mean n = 2-6; note: hFAP 2.4 pM
human Fibroblast activation protein alpha (hFAP), sequence (Q12884 38-760): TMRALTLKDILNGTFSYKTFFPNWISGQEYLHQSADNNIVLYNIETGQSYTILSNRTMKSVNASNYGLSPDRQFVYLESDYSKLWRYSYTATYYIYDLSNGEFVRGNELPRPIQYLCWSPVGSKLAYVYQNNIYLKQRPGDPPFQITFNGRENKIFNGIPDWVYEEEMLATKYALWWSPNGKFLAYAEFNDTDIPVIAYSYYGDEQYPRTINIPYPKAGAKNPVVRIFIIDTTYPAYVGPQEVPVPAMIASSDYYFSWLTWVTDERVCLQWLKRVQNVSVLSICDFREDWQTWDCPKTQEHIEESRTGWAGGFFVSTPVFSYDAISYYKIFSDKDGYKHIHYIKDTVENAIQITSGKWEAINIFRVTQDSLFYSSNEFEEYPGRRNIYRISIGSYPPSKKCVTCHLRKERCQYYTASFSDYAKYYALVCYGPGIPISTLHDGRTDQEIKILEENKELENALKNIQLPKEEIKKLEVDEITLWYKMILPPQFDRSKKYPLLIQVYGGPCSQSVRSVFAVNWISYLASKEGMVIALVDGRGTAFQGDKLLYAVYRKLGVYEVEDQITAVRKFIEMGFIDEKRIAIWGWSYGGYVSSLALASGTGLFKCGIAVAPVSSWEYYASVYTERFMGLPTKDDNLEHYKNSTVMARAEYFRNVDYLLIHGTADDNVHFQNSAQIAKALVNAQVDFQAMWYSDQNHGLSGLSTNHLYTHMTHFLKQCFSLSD
Description: The plates were read on a PHERAstar® reader with excitation 340 nm and emission 460 nm. Data were analyzed in Genedata Screener®. IC50 values were determined by plotting % inhibition versus log compound concentration and using a one site dose response model.

[4] = biological target: Prolyl endopeptidase, Prolyl Oligopeptidase (hPREP) (Homo sapiens (Human), UniProt P48147); test: hPrep inhibition assay; assay type: biochemical; conditions: hPREP 0.6 nM, Z-Gly-Pro-amino-methylcoumarin 50 μM; read-out: PREP IC50
Prolyl endopeptidase, Prolyl Oligopeptidase (hPREP), sequence (P48147 whole entry): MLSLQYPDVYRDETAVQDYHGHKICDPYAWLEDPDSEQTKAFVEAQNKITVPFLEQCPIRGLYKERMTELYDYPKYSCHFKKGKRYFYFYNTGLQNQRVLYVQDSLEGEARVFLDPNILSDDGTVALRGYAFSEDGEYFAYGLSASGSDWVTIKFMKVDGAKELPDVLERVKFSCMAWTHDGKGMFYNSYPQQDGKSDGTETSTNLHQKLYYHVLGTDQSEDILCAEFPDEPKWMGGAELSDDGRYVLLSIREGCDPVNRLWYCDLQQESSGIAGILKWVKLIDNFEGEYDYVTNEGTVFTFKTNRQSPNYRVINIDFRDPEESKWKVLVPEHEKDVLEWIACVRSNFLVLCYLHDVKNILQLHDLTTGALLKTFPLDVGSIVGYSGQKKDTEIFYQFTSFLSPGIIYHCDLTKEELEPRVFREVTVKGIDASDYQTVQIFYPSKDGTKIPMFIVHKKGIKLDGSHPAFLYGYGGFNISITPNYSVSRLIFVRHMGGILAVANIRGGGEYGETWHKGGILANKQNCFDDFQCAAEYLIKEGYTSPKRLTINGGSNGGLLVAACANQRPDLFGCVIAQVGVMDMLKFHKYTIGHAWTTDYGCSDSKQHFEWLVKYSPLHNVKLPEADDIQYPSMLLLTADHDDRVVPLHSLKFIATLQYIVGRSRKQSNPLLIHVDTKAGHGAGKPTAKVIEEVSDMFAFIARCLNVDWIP
In short: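 Fluorogenic read-out (340 nm excitation, 460 nm emission) after 20 min at rt, using 50 μM final Z-Gly-Pro-aminomethylcoumarin and 0.6 nM final enzyme, following 15 min compound preincubation. Buffer pH 7.5 with glutathione and Triton X-100. IC50 via one-site model on % inhibition vs log concentration.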

hFAP (M39-A757) = hFAP (M39-A757) (Homo sapiens (Human), UniProt Q12884); test: hFAP binding assay (surface plasmon resonance); conditions: SPR, 20° C.; for hFAP Binding assay k(off) / hFAP Binding assay k(on): single cycle kinetics; for pKd: n = 1 or geometric mean n = 2-4
hFAP (M39-A757), sequence (Q12884 39-757): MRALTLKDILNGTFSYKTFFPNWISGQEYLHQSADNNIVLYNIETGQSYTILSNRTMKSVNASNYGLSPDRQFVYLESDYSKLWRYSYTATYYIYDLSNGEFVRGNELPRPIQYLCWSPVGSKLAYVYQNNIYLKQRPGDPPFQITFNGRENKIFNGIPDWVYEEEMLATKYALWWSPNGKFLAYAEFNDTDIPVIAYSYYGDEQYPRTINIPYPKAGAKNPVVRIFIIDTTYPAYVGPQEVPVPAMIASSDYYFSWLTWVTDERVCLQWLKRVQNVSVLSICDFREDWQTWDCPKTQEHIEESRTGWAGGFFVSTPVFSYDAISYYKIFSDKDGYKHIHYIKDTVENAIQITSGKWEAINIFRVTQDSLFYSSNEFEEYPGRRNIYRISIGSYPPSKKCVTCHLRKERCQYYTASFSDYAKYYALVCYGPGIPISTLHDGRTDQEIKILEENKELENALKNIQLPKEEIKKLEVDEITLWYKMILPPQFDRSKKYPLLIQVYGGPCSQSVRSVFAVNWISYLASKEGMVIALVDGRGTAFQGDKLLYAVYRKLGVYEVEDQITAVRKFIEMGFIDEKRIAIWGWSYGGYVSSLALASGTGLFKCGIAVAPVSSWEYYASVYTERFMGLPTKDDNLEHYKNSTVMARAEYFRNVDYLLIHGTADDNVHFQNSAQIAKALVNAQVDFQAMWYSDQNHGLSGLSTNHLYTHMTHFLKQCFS

Caco-2 cell permeability = conditions: human
Description: Caco-2 cell permeability was measured as described in Mol Pharm 2017, 14, 1601.

[5] = HLM CLint, n = 1 or average of n = 2-3
[6] = Solubility, kinetic solubility, n = 1 or average of n = 2-3

FAP, sequence (Q12884 38-760): as the sequence (Q12884 38-760) above

pIC50 (FAP; hFAP […]) | microsomal CLint [1, 5] [µL/min/mg] | rHep CLint [2] [μL/min/1E6] | solubility (Kinetic solubility; [6]) [µM] | pIC50 [3] | pIC50 [4] | hFAP Binding assay k(off) (hFAP (M39-A757)) [s⁻¹] | hFAP Binding assay k(on) (hFAP (M39-A757)) [M⁻¹ s⁻¹] | pKd (hFAP (M39-A757)) | pIC50 (FAP; hFAP 0.24 nM) | Papp A→B (Caco-2 cell permeability) [×10⁻⁶ cm/s] | Papp B→A (Caco-2 cell permeability) [×10⁻⁶ cm/s] | efflux ratio (Caco-2 cell permeability) | Papp (Caco-2 cell permeability) [×10⁻⁶ cm/s] | SMILES | microsomal CLint [1] [µL/min/mg] | solubility (Kinetic solubility) [µM]
9.33 | 63 | 64 | 600 (≈ 267 µg/mL) | 9.77 | 5.77 | 0.00010 | 900000 | 10.00 | – | – | – | – | – | N#C[C@@H]1CSCN1C(=O)CNC(=O)c1ccnc2ccc(N3CCC(F)(F)CC3)cc12 [Example 35, (R)—N-(2-(4-Cyanothiazolidin-3-yl)-2-oxoethyl)-6-(4,4-difluoropiperidin-1-yl)quinoline-4-carboxamide] | – | –
9.60 | 31 | 46 | 640 (≈ 281 µg/mL) | 10.24 | 6.55 | 0.000085 | 710000 | 9.92 | – | – | – | – | – | C[C@H]1CCN(c2ccc3nccc(C(=O)NCC(=O)N4CSC[C@H]4C#N)c3c2)CCO1 [Example 62, N-(2-((R)-4-Cyanothiazolidin-3-yl)-2-oxoethyl)-6-((S)-7-methyl-1,4-oxazepan-4-yl)quinoline-4-carboxamide] | – | –
9.68 | 14 | 24 | 56 (≈ 23.2 µg/mL) | 10.19 | 6.89 | 0.00011 | 5600000 | 10.68 | – | – | – | – | – | N#C[C@@H]1CSCN1C(=O)CNC(=O)c1ccnc2ccc(N3CC[C@H](F)C3)cc12 [Example 51, N-(2-((R)-4-Cyanothiazolidin-3-yl)-2-oxoethyl)-6-((S)-3-fluoropyrrolidin-1-yl)quinoline-4-carboxamide] | – | –
9.57 | 70 | 24 | 130 (≈ 61.3 µg/mL) | 10.00 | 6.82 | – | – | 10.35 | – | – | – | – | – | Cc1cccc(C2CN(c3ccc4nccc(C(=O)NCC(=O)N5CSC[C@H]5C#N)c4c3)C2)c1 [Example 186, (R)—N-(2-(4-Cyanothiazolidin-3-yl)-2-oxoethyl)-6-(3-(m-tolyl)azetidin-1-yl)quinoline-4-carboxamide] | – | –
9.13 | 290 | 120 | 900 (≈ 369 µg/mL) | 9.37 | 6.37 | 0.00012 | 4200000 | 10.52 | – | – | – | – | – | CC1(C)CCN1c1ccc2nccc(C(=O)NCC(=O)N3CSC[C@H]3C#N)c2c1 [Example 20, (R)—N-(2-(4-Cyanothiazolidin-3-yl)-2-oxoethyl)-6-(2,2-dimethylazetidin-1-yl)quinoline-4-carboxamide] | – | –
9.70 | – | 15 | – | 10.10 | 6.55 | 0.000092 | 2900000 | 10.37 | – | – | – | – | – | N#C[C@@H]1CSCN1C(=O)CNC(=O)c1ccnc2ccc(N3C[C@@H](F)[C@H](F)C3)cc12 [Example 214, N-(2-((R)-4-Cyanothiazolidin-3-yl)-2-oxoethyl)-6-((3R,4R)-3,4-difluoro-pyrrolidin-1-yl)quinoline-4-carboxamide] | – | –
– | – | – | – | 10.19 | 6.55 | 0.000046 | 1300000 | 10.37 | 9.62 | – | – | – | – | N#C[C@@H]1CSCN1C(=O)CNC(=O)c1ccnc2ccc(N3CCC[C@H](F)C3)cc12 (mixture of isomers) [Example 40, N-(2-((R)-4-Cyanothiazolidin-3-yl)-2-oxoethyl)-6-((RS)-3-fluoropiperidin-1-yl)quinoline-4-carboxamide] | – | –
9.30 | – | 280 | 36 (≈ 18.7 µg/mL) | 9.57 | 6.77 | 0.0022 | 3000000 | 9.14 | – | – | – | – | – | C[C@@H]1COC[C@H](C)N1c1cc2c(C(=O)NCC(=O)N3CSC[C@H]3C#N)ccnc2cc1Br [Example 100, 7-Bromo-N-(2-((R)-4-cyanothiazolidin-3-yl)-2-oxoethyl)-6-((3S,5R)-3,5-dimethylmorpholino)quinoline-4-carboxamide] | – | –
– | < 3 | <1 | > 1000 | 10.16 | 6.16 | 0.000036 | 1800000 | 10.70 | – | 0.32 | 7.6 | 24 | – | CC1(O)CCN(c2ccc3nccc(C(=O)NCC(=O)N4CSC[C@H]4C#N)c3c2)CC1 [Example 190, (R)—N-(2-(4-Cyanothiazolidin-3-yl)-2-oxoethyl)-6-(4-hydroxy-4-methyl-piperidin-1-yl)quinoline-4-carboxamide] | – | –
– | < 3 | <1 | 830 (≈ 352 µg/mL) | 10.10 | 5.92 | 0.000064 | 1300000 | 10.30 | – | 0.15 | 2.4 | 16 | – | N#C[C@@H]1CSCN1C(=O)CNC(=O)c1ccnc2ccc(N3CCCCC3=O)cc12 [Example 14, (R)—N-(2-(4-Cyanothiazolidin-3-yl)-2-oxoethyl)-6-(2-oxopiperidin-1-yl)-quinoline-4-carboxamide] | – | –
– | < 3 | <1 | 90 (≈ 38.1 µg/mL) | > 10.60 | 6.21 | 0.00010 | 1800000 | 10.23 | – | – | – | – | 4.8 | C[C@H]1CCN(c2ccc3nccc(C(=O)NCC(=O)N4CSC[C@H]4C#N)c3c2)C1=O (single isomer, unassigned) [Example 201, N-(2-((R)-4-Cyanothiazolidin-3-yl)-2-oxoethyl)-6-((R*)-3-methyl-2-oxopyrrolidin-1-yl)quinoline-4-carboxamide] | – | –
– | 11 | <1 | 840 (≈ 381 µg/mL) | 10.25 | 6.36 | 0.000051 | 2600000 | 10.70 | – | 0.29 | 13 | 46 | – | CCC1(O)CCN(c2ccc3nccc(C(=O)NCC(=O)N4CSC[C@H]4C#N)c3c2)CC1 [Example 189, (R)—N-(2-(4-Cyanothiazolidin-3-yl)-2-oxoethyl)-6-(4-ethyl-4-hydroxy-piperidin-1-yl)quinoline-4-carboxamide] | – | –
– | < 3 | <1 | > 1000 | 10.31 | 6.08 | 0.000043 | 1300000 | 10.48 | – | 0.2 | 10 | 50 | – | N#C[C@@H]1CSCN1C(=O)CNC(=O)c1ccnc2ccc(N3CC(N4CCOCC4)C3)cc12 [Example 122, (R)—N-(2-(4-Cyanothiazolidin-3-yl)-2-oxoethyl)-6-(3-morpholinoazetidin-1-yl)quinoline-4-carboxamide] | – | –

SMILES | pIC50 (FAP; hFAP […]) | microsomal CLint [1, 5] [µL/min/mg] | rHep CLint [2] [μL/min/1E6] | solubility (Kinetic solubility; [6]) [µM] | pIC50 [3] | pIC50 [4] | hFAP Binding assay k(off) (hFAP (M39-A757)) [s⁻¹] | hFAP Binding assay k(on) (hFAP (M39-A757)) [M⁻¹ s⁻¹] | pKd (hFAP (M39-A757)) | pIC50 (FAP; hFAP 0.24 nM) | Papp A→B (Caco-2 cell permeability) [×10⁻⁶ cm/s] | Papp B→A (Caco-2 cell permeability) [×10⁻⁶ cm/s] | efflux ratio (Caco-2 cell permeability) | Papp (Caco-2 cell permeability) [×10⁻⁶ cm/s] | microsomal CLint [1] [µL/min/mg] | solubility (Kinetic solubility) [µM]
N#C[C@@H]1CSCN1C(=O)CNC(=O)c1ccnc2ccc(N3CCOCC34CCC4)cc12 [Example 104, (R)—N-(2-(4-cyanothiazolidin-3-yl)-2-oxoethyl)-6-(8-oxa-5-azaspiro[3.5]nonan-5-yl)quinoline-4-carboxamide] | 9.68 | – | 28 | – | 10.09 | 6.19 | 0.000061 | 3000000 | 10.70 | – | – | – | – | – | 130 | 930 (≈ 420 µg/mL)
